Measurements: patent US8575218B2, “Thiol-containing compounds for the removal of elements from tissues and formulations therefor” (priority 2009, dated 2013)

Legend:
[1] = Solubility of isolated product in solvents; type: physicochemical
goldfish = assay: Exposure of goldfish to mercuric acetate with and without chelators; type: in vivo
Protocol: Individual goldfish were placed in 200 ml water with 10 mM sodium chloride in 250 ml Erlenmeyer flasks (pH 7.00). Air was pumped into the flasks to maintain a healthy supply of oxygen. The 24 hour day was divided in to a 12 hour light/dark photoperiod. The goldfish were allowed to acclimatize for a week before the experiment was conducted, with daily water changes. Goldfish were fed standard fish food for 15 minutes each day before the water was changed.
The chelate ligands were dissolved in dimethyl sulfoxide (DMSO, 0.5 ml) before addition to the flasks. The experimental treatments evaluated are as listed in Table 1 below, and included mercuric acetate, B9, EEAB9, GB9, GEEAB9, and DMSO in the amounts shown in Table 1. B9 and EEAB9 were dissolved in DMSO (0.5 ml) before addition to the water. No precipitate was formed during the dissolution.

NC(CCC(=O)NC(CSSCCNC(=O)c1cccc(C(=O)NCCSSCC(NC(=O)CCC(N)C(=O)O)C(=O)NCC(=O)O)c1)C(=O)NCC(=O)O)C(=O)O (stereo not shown) [GB9]
Solubility in solvents [1]: readily dissolved in water

CC(=O)[O-].CC(=O)[O-].[Hg+2] [Mercuric acetate]
Goldfish state (Alive/Dead) at 30 min (goldfish; mercuric acetate 0.5 mM + DMSO 0.5 ml): Dead | Goldfish state (Alive/Dead) at 30 min (goldfish; mercuric acetate 0.5 mM alone): Dead | Time to death of goldfish (goldfish; mercuric acetate without chelator): ≤ 30 min
